Patent publication US20030228621A1, “Common ligand universal enzyme assay and compositions for use therein” (priority 2002, published 2003)

Tests used:
[1] = Stability of dehydrogenases and FITC-NADH by fluorescence polarization over time; type: physicochemical; conditions: 1.5 nM FITC-NADH with EACPR, GAPDH or DHPR
Protocol: The fluorescence polarization of solutions of 10 μM enoyl ACP reductase, 5.6 μM glyceraldehyde-3-phosphate dehydrogenase and 10 μM dihydrodipicolinate reductase with 1.5 nM FITC-NADH, was measured. The concentration of the dehydrogenase was such that the solution of dehydrogenase and FITC-NADH would give the polarization mP value of 70-80. The blank was a solution of protein in buffer. Fluorescence polarization measurements were taken for 2 hours at 5 minute intervals.

[2] = target: dihydrodipicolinate reductase (DHPR) (Escherichia coli, UniProt P04036); assay: Fluorescence polarization binding of FITC-NADH titrated with dihydrodipicolinate reductase (FIG. 4); conditions: 25 nM FITC-NADH, 20 mM Potassium Phosphate, pH 7.4, or 20 mM HEPES, pH 7.8, fit of mP vs Log(DHPR)
Protocol: This example illustrates the determination of the concentration of FITC-NADH that would provide the best signal to noise ratio for fluorescence polarization assay. FITC-NADH was dissolved in 10 mM TAPS buffer with 5% NaHCO3, pH=8. The final concentration of FITC-NADH was 150 μM. In later experiments 150 μM FITC-NADH was diluted to the desired concentration in 20 mM Potassium Phosphate buffer, pH=7.4. Fluorescence polarization was monitored using a Beacon 2000 Variable Temperature Fluorescence Polarization System (PanVera Corporation, Madison, Wis.) and an LJL Analyst HT 96-384 (Molecular Devices Corporation, Sunnyvale, Calif.). The concentration of FITC-NADH as fluorescent tracer was selected by measuring fluorescence polarization of varying concentrations of FITC-NADH in 10 mM Potassium Phosphate buffer, pH=7.4. The concentration range was 0.15 nM—15 nM. For the best signal to noise ratio regarding both the horizontal and vertical intensities that contribute to the fluorescence polarization value, a concentration of 25 nM was chosen for FITC-NADH in the majority of experiments.
This example illustrates the binding characteristics of FITC-NADH to various dehydrogenases. […] An individual blank of protein in buffer was measured for each point. […] FITC-NADH was added to the test tubes and the fluorescence polarization measurement was taken. […]

Chain of dihydrodipicolinate reductase (DHPR) (P04036 whole entry): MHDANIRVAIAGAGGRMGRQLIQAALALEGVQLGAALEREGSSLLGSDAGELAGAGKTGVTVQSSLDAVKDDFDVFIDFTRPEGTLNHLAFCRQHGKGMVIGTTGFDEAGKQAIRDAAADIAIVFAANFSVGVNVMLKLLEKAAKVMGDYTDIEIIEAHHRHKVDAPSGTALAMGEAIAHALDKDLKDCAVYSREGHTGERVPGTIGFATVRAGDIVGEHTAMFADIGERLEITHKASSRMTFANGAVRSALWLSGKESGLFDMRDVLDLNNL

Q: For NC(=O)C1=CN(C2OC(COP(=O)(O)OP(=O)(O)OCC3OC(n4cnc5c(NCCNC(=S)Nc6ccc(-c7c8ccc(=O)cc-8oc8cc(O)ccc78)c(C(=O)O)c6)ncnc54)C(O)C3O)C(O)C2O)C=CC1 (centres unmarked) [FITC-NADH, fluorescein isothiocyano-N^6-(2-aminoethyl)-NADH], which “time stable in fluorescence polarization assay” value [1] is on record?
A: 100 min

Q: And the Kd [2]?
A: 1.4 ± 0.1 µM
